Measured values reported in patent publication US11591341B2 (ALIGOS THERAPEUTICS, INC., priority 2019, dated 2023).

The compounds below were run on HBV (assay: HBV-DNA Antiviral Assay Using HepG2.117 Cells (intracellular HBV DNA by qPCR)). Conditions: Hepatitis B virus, HepG2.117.
Type: cell-based, hepatitis B virus (genotype D)
Outline: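 HepG2.117 cells (genotype D HBV, Tet-off) were induced by doxycycline withdrawal and treated for 3 days with 9 concentrations in 4-fold dilution, 2% DMSO final. Intracellular HBV DNA was measured by qPCR against a standard curve, with ATPlite viability read in parallel. EC50, EC90 and CC50 came from fits against the DMSO control.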

`COc1ccc([C@H](C)NC(=O)c2c3n(c(=O)n2-c2ccc(-n4cccn4)cc2)CCN(C(=O)c2ccc(Br)c(Cl)c2)C3)cc1` [Example 442, 7-(4-bromo-3-chloro-benzoyl)-N-[(1S)-1-(4-methoxyphenyl)ethyl]-3-oxo-2-(4-pyrazol-1-ylphenyl)-6,8-dihydro-5H-imidazo[1,5-a]pyrazine-1-carboxamide] and `COc1ccc(-n2c(C(=O)N[C@H](C)c3ccc(Br)cc3)c3n(c2=O)CCN(C(=O)c2ccc(Br)c(Cl)c2)C3)cc1` (racemic) [Example 145, 7-(4-bromo-3-chloro-benzoyl)-2-(4-methoxyphenyl)-3-oxo-N-[rac-(1R)-1-(4-bromophenyl)ethyl]-6,8-dihydro-5H-imidazo[1,5-a]pyrazine-1-carboxamide] fall in the same range of EC50: 100 to 500 nM for the first, 100 to 500 nM for the second.

First: O=C(c1ccc(Br)c(Cl)c1)N1CCn2c(c3n(c2=O)C[C@@H](CO)CN(Cc2ccccc2)C3=O)C1 (stereo in doubt) [Example 147, rac-(11S)-13-benzyl-4-(4-bromo-3-chloro-benzoyl)-11-(hydroxymethyl)-4,7,9,13-tetrazatricyclo[7.5.0.0^2,7]tetradec-1-ene-8,14-dione]
Second: CO[C@@H]1CN(Cc2ccccc2)Cc2c3n(c(=O)n2C1)CCN(C(=O)c1ccc(Br)c(Cl)c1)C3 (stereo in doubt) [Example 309, rac-(11R)-13-benzyl-4-(4-bromo-3-choro-benzoyl)-11-methoxy-4,7,9,13-tetrazatricyclo[7.5.0.0^2,7]tetradec-1-ene-8,14-dione]
The EC50 of the first is lower: 100 to 500 nM for the first, 500 to 5000 nM for the second. The first is the more potent here.

`COc1ccc(-n2c(C(=O)NCc3ccc4oc(C)nc4c3)c3n(c2=O)CCN(C(=O)c2ccc(Cl)c(Cl)c2)C3)cc1` [Example 67, 7-(3,4-dichlorobenozyl)-2-(4-methoxyphenyl)-N-[(2-methyl-1,3-benzoxazol-5-yl)methyl]-3-oxo-6,8-dihydro-5H-imidazo[1,5-a]pyrazine-1-carboxamide] and `COc1ccc(-n2c(C(=O)NCc3ccc(Cl)c(OC)c3)c3n(c2=O)CCN(C(=O)c2ccc(Br)c(Cl)c2)C3)cc1` [Example 101, 7-(4-bromo-3-chloro-benzoyl)-N-[(4-chloro-3-methoxy-phenyl)methyl]-2-(4-methoxyphenyl)-3-oxo-6,8-dihydro-5H-imidazo[1,5-a]pyrazine-1-carboxamide] fall in the same range of EC50: 500 to 5000 nM for the first, 500 to 5000 nM for the second.

First: COc1ccc([C@@H](C)NC(=O)c2c3n(c(=O)n2-c2ccc(OC4CC4)cc2)CCN(C(=O)c2ccc(Br)c(Cl)c2)C3)cc1 [Example 453, 7-(4-bromo-3-chloro-benzoyl)-2-[4-(cyclopropoxy)phenyl]-N-[(1R)-1-(4-methoxyphenyl)ethyl]-3-oxo-6,8-dihydro-5H-imidazo[1,5-a]pyrazine-1-carboxamide]
Second: C[C@@H](NC(=O)c1c2n(c(=O)n1-c1ccc(OC3CC3)cc1)CCN(C(=O)c1ccc(Br)c(Cl)c1)C2)c1ccc(C#N)cc1F (racemic) [Example 341, 7-(4-bromo-3-chloro-benzoyl)-2-[4-(cyclopropoxy)phenyl]-3-oxo-N-[rac-(1R)-1-(4-cyano-2-fluoro-phenyl)ethyl]-6,8-dihydro-5H-imidazo[1,5-a]pyrazine-1-carboxamide]
The EC50 of the first is lower: 100 to 500 nM for the first, 500 to 5000 nM for the second. The first is the more potent here.

`CC(C)Oc1ccc(-n2c(-c3ncc(-c4ccccc4)o3)c3n(c2=O)CCN(C(=O)c2ccc(Br)c(Cl)c2)C3)cc1` [Example 197, 7-(4-bromo-3-chloro-benzoyl)-2-(4-isopropoxyphenyl)-1-(5-phenyloxazol-2-yl)-6,8-dihydro-5H-imidazo[1,5-a]pyrazin-3-one] and `CC(C)Oc1ccc(-n2c(C(=O)NCc3ccc4occc4c3)c3n(c2=O)CCN(C(=O)c2ccc(Br)c(Cl)c2)C3)cc1` [Example 220, N-(benzofuran-5-ylmethyl)-7-(4-bromo-3-chloro-benzoyl)-2-(4-isopropoxyphenyl)-3-oxo-6,8-dihydro-5H-imidazo[1,5-a]pyrazine-1-carboxamide] cannot be ordered by EC50: over 5000 nM for the first, over 5000 nM for the second.

Compared with `COc1ccc(CN2Cc3c4n(c(=O)n3C[C@@H](O)C2)CCN(C(=O)c2ccc(Br)c(Cl)c2)C4)c(F)c1` (stereo in doubt) [Example 289, rac-(11S)-4-(4-bromo-3-chloro-benzoyl)-13-[(2-fluoro-4-methoxy-phenyl)methyl]-11-hydroxy-4,7,9,13-tetrazatricyclo[7,5.0.0^2,7]tetradec-1-ene-8,14-dione], `COc1ccc(-n2c(C(=O)NCc3ccc(OC)cc3OC)c3n(c2=O)CCN(C(=O)c2ccc(Br)c(Cl)c2)C3)cc1` [Example 143, 7-(4-bromo-3-chloro-benzoyl)-N-[(2,4-dimethoxyphenyl)methyl]-2-(4-methoxyphenyl)-3-oxo-6,8-dihydro-5H-imidazo[1,5-a]pyrazine-1-carboxamide] is lower in EC50: 100 to 500 nM for the first, under 100 nM for the second. The second is the more potent here.

`C[C@@H](Oc1ccc(-n2c(C(=O)NCc3ccccc3)c3n(c2=O)CCN(C(=O)c2ccc(Br)c(Cl)c2)C3)cc1)C(F)(F)F` (stereo in doubt) [Example 282, N-benzyl-7-(4-bromo-3-chloro-benozyl)-3-oxo-2-[4-[rac-(1R)-2,2,2-trifluoro-1-methyl-ethoxy]phenyl]-6,8-dihydro-5H-imidazo[1,5-a]pyrazine-1-carboxamide] and `COc1ccc(-n2c(C(=O)NCc3ccccc3)c3n(c2=O)CCN(C(=O)c2ccc(Br)c(Cl)c2)C3)nc1` [Example 110, N-benzyl-7-(4-bromo-3-chloro-benzoyl)-2-(5-methoxy-2-pyridyl)-3-oxo-6,8-dihydro-5H-imidazo[1,5-a]pyrazine-1-carboxamide] fall in the same range of EC50: 500 to 5000 nM for the first, 500 to 5000 nM for the second.

Compared with `C[C@@H]1CN(c2ccc(-n3c(C(=O)NCc4ccccc4)c4n(c3=O)CCN(C(=O)c3ccc(Br)c(Cl)c3)C4)cc2)CCO1` (racemic) [Example 416, N-benzyl-7-(4-bromo-3-chloro-benzoyl)-3-oxo-2-[4-[rac-(2R)-2-methylmorpholin-4-yl]phenyl]-6,8-dihydro-5H-imidazo[1,5-a]pyrazine-1-carboxamide], `NS(=O)(=O)c1cccc(-n2c(C(=O)NCc3ccccc3)c3n(c2=O)CCN(C(=O)c2ccc(Br)c(Cl)c2)C3)c1` [Example 47, N-benzyl-7-(4-bromo-3-chloro-benzoyl)-3-oxo-2-(3-sulfamoylphenyl)-6,8-dihydro-5H-imidazo[1,5-a]pyrazine-1-carboxamide] is higher in EC50: 100 to 500 nM for the first, over 5000 nM for the second. The first is the more potent here.

First: COc1ccc([C@H](C)NC(=O)c2c3n(c(=O)n2-c2ccc(OC(C)C)cc2)CCN(C(=O)c2ccc(Br)c(Cl)c2)C3)c(F)c1 (stereo in doubt) [Example 235, 7-(4-bromo-3-chloro-benzoyl)-2-(4-isopropoxyphenyl)-3-oxo-N-[rac-(1S)-1-(2-fluoro-4-methoxy-phenyl)ethyl]-6,8-dihydro-5H-imidazo[1,5-a]pyrazine-1-carboxamide]
Second: C[C@@H](NC(=O)c1c2n(c(=O)n1-c1ccc(OCC(F)(F)F)cc1)CCN(C(=O)c1ccc(Br)c(Cl)c1)C2)c1ccc(OCC#N)cc1F (stereo in doubt) [Example 344, 7-(4-bromo-3-chloro-benzoyl)-3-oxo-N-[rac-(1R)-1-[4-(cyanomethoxy)-2-fluoro-phenyl]ethyl]-2-[4-(2,2,2-trifluoroethoxy)phenyl]-6,8-dihydro-5H-imidazo[1,5-a]pyrazine-1-carboxamide]
The EC50 of the first is lower: 100 to 500 nM for the first, 500 to 5000 nM for the second. The first is the more potent here.

First: C[C@@H](NC(=O)c1c2n(c(=O)n1-c1ccccc1)CCN(C(=O)c1ccc(Br)c(Cl)c1)C2)c1ccccc1 (stereo in doubt) [Example 37, 7-(4-bromo-3-chloro-benzoyl)-3-oxo-2-phenyl-N-[rac-(1R)-1-phenylethyl]-6,8-dihydro-5H-imidazo[1,5-a]pyrazine-1-carboxamide]
Second: COc1ccc(-n2c(C(=O)NCc3ccccc3)c3n(c2=O)CCN(C(=O)c2ccc(Cl)c(Cl)c2)C3)c(C)c1 [Example 87, N-benzyl-7-(3,4-dichlorobenzoyl)-2-(4-methoxy-2-methyl-phenyl)-3-oxo-6,8-dihydro-5H-imidazo[1,5-a]pyrazine-1-carboxamide]
The EC50 of the first is lower: 500 to 5000 nM for the first, over 5000 nM for the second.

First: COc1ccc(-n2c(C(=O)NCc3cccnc3)c3n(c2=O)CCN(C(=O)c2ccc(Cl)c(Cl)c2)C3)cc1 [Example 64, 7-(3,4-dichlorobenzoyl)-2-(4-methoxyphenyl)-3-oxo-N-(3-pyridylmethyl)-6,8-dihydro-5H-imidazo[1,5-a]pyrazine-1-carboxamide]
Second: COc1ccc(-n2c(C(=O)NCc3cccc(C#N)c3)c3n(c2=O)CCN(C(=O)c2ccc(Cl)c(Cl)c2)C3)cc1 [Example 63, N-[(3-cyanophenyl)methyl]-7-(3,4-dichlorobenzoyl)-2-(4-methoxyphenyl)-3-oxo-6,8-dihydro-5H-imidazo[1,5-a]pyrazine-1-carboxamide]
The EC50 of the first is higher: over 5000 nM for the first, 500 to 5000 nM for the second.

Compared with `COc1ccc(-n2c(C(=O)NCc3ccccc3)c3n(c2=O)CCN(C(=O)c2ccc(Cl)c(Cl)c2)C3)c(C#N)c1` [Example 80, N-benzyl-2-(2-cyano-4-methoxy-phenyl)-7-(3,4-dichlorobenzoyl)-3-oxo-6,8-dihydro-5H-imidazo[1,5-a]pyrazine-1-carboxamide], `COc1ccc(CNC(=O)c2c3n(c(=O)n2-c2ccc(OCC(F)(F)F)cc2)CCN(C(=O)c2ccc(Br)c(Cl)c2)C3)c(C)c1` [Example 246, 7-(4-bromo-3-chloro-benzoyl)-N-[(4-methoxy-2-methyl-phenyl)methyl]-3-oxo-2-[4-(2,2,2-trifluoroethoxy)phenyl]-6,8-dihydro-5H-imidazo[1,5-a]pyrazine-1-carboxamide] is lower in EC50: over 5000 nM for the first, 100 to 500 nM for the second. The second is the more potent here.

Work on `CC(NC(=O)c1c2n(c(=O)n1-c1ccc(OCC(F)(F)F)cc1)CCN(C(=O)c1ccc(Br)c(Cl)c1)C2)c1ccc(OC(F)(F)F)cc1F` (racemic) [Example 293, 7-(4-bromo-3-chloro-benzoyl)-3-oxo-N-[rac-(1S)-1-[2-fluoro-4-(trifluoromethoxy)phenyl]ethyl]-2-[4-(2,2,2-trifluoroethoxy)phenyl]-6,8-dihydro-5H-imidazo[1,5-a]pyrazine-1-carboxamide] yielded an EC50 of 500 to 5000 nM.
